We go through 3 compounds from publication PMC6588349 (eLife, 2019).

The target of data set [1] is T1, full-length mGluR2 (SNAP-mGluR2) (Rattus norvegicus, UniProt P31421).
T1 construct: HEK 293T cells expressing full-length mGluR2; expressed in transfected cells; host or cells: HEK 293T
The data set can be described thus: GIRK activation assay, whole cell patch clamp, HEK 293T cells expressing full-length mGluR2. Type of data set: cell-based. The settings on record: for effect on basal GIRK current in the absence of glutamate: NAM alone, HEK 293T cells expressing GIRK and full-length mGluR2. The method, then:
Cells were cultured in DMEM with 5% FBS on poly-L-lysine-coated glass coverslips. DNA plasmids were transfected into cells using Lipofectamine 3000 (Thermo Fisher). […] For single-molecule pulldown (SiMPull) experiments, cells were transfected with 0.7 μg DNA of HA and SNAP-tagged receptor constructs, unless otherwise noted.
Whole-cell patch clamp recordings from single isolated cells were performed 24–36 hr after transfection in a high-potassium extracellular solution containing (in mM): 120 KCl, 29 NaCl, 1 MgCl2, 2 CaCl2 and 10 HEPES, pH 7.4. Cells were voltage clamped to −60 mV using an Axopatch 200B amplifier (Axon Instruments) and membrane currents were recorded. Glass pipettes of resistance between 3 and 8 MΩ were filled with intracellular solution containing (in mM): 140 KCl, 10 HEPES, 3 Na2ATP, 0.2 Na2GTP, 5 EGTA and 3 MgCl2, pH 7.4. Data were acquired with a 2 kHz acquisition rate and filtered with the amplifier 4-pole Bessel filter at 1 kHz. Drugs were prepared in extracellular solution and applied using a gravity-driven perfusion system. Data were analyzed with Clampfit (Molecular Devices) and Prism (GraphPad). Data for all conditions came from at least two separate transfections.

Data set [2] in a line: Gramicidin-based fluorescence quench assay for changes of lipid bilayer properties (LUVs). Type of data set: physicochemical. The settings on record: 1 to 10 µM. The source says: To further probe this, we used a fluorescence quench assay for drug-induced changes of lipid bilayer properties ([Ingólfsson and Andersen, 2010]) (Figure 6—figure supplement 3A; see Materials and methods), in which changes in gramicidin channel function is used as a reporter of membrane modification. […] The persistent BINA response is thus consistent with a model where BINA readily partitions into the plasma membrane lipid bilayer (and possibly other lipidic compartments).
The gramicidin-based fluorescence assay has been described previously ([Ingólfsson and Andersen, 2010]). In brief, large unilamellar vesicles (LUVs), loaded with intravesicular ANTS were prepared from DC22:1PC and gramicidin (weight ratio 1000:1, corresponding to a ~ 2000:1 molar ratio) using freeze-drying, extrusion and size-exclusion chromatography; the final lipid concentration was 4–5 mM; the suspension was stored in the dark at 12.5°C for a maximum of 7 days. […] Before use, the LUV-ANTS stock was diluted to 200–250 μM lipid with NaNO3 buffer (140 mM NaNO3, 10 mM HEPES, pH 7).
The NAMs and PAMs (dissolved in DMSO) or DMSO (as control) were added to a LUV-ANTS sample and equilibrated at 25°C in the dark for 10 min. before the mixture was loaded into a stopped-flow spectrofluorometer (Applied Photophysics SX.20, Leatherhead, UK) and mixed with either NaNO3 buffer or TlNO3 buffer; Tl^+ (thallous ion) is a gramicidin channel-permeant quencher of the ANTS fluorescence. Samples were excited at 352 nm and the fluorescence signal above 455 nm was recorded in the absence (four successive trials) or presence (nine successive trials) of the quencher. All the NAM and PAM derivatives fluoresce to varying degrees and addition of these drugs to LUVs in control experiments without gA or Tl^+ increased the fluorescence signal, and each signal was normalized to account for the compound's fluorescence. […] The quench rate (Rate), the rate of Tl^+ influx, was determined at 2 ms: Rate=β/τ0⋅(t/τ0)^β−1|2ms […]

A further data set concerns the target T2, SNAP-mGluR2 (Rattus norvegicus, UniProt P31421).
T2 construct: HEK 293T cells expressing full-length mGluR2; expressed in transfected cells; host or cells: HEK 293T
The data set can be described thus: Single-molecule pulldown (SiMPull) photobleaching step counting, full-length SNAP-mGluR2. The settings on record: 1 mM glutamate and 10 µM LY48. How it is done: To restrict our analysis to surface-targeted receptors, we expressed N-terminally SNAP-tagged receptor variants and labeled them with membrane-impermeable fluorophores.
To test this, we incubated SNAP-mGluR2-TMD expressing cells and lysates with PAMs or NAMs during the SiMPull experiment.
Briefly, to prevent non-specific sticking of proteins, flow chambers were prepared with mPEG-passivated glass slides and coverslips doped with ~1% biotinylated mPEG, as previously described. Prior to each experiment, chambers were incubated with 0.2 mg/mL NeutrAvidin (ThermoFisher) for 2 min followed by 10 nM of a biotinylated anti-HA antibody (abcam ab26228) for 20–30 min. After each conjugation step, the chambers were washed with T50 buffer (50 mM NaCl, 10 mM Tris, pH 7.5).
After labeling, cells were dissociated from coverslips by incubating with Ca^2+-free PBS for 20 min followed by gentle pipetting. […] Following 1 hr of lysis at 4°C, cells were centrifuged at 16,000 g for 20 min before the supernatant was collected and maintained on ice. The cell lysate was diluted in a 0.1% detergent dilution buffer to obtain sparse immobilization of labeled protein on the passivated slide. […]
Single molecules were imaged with a 100x objective on an inverted microscope (Olympus IX73) in total internal reflection fluorescence (TIRF) mode. […]

Where two headings read alike, the source gives them in different places.

T1 sequence (P31421 19-872): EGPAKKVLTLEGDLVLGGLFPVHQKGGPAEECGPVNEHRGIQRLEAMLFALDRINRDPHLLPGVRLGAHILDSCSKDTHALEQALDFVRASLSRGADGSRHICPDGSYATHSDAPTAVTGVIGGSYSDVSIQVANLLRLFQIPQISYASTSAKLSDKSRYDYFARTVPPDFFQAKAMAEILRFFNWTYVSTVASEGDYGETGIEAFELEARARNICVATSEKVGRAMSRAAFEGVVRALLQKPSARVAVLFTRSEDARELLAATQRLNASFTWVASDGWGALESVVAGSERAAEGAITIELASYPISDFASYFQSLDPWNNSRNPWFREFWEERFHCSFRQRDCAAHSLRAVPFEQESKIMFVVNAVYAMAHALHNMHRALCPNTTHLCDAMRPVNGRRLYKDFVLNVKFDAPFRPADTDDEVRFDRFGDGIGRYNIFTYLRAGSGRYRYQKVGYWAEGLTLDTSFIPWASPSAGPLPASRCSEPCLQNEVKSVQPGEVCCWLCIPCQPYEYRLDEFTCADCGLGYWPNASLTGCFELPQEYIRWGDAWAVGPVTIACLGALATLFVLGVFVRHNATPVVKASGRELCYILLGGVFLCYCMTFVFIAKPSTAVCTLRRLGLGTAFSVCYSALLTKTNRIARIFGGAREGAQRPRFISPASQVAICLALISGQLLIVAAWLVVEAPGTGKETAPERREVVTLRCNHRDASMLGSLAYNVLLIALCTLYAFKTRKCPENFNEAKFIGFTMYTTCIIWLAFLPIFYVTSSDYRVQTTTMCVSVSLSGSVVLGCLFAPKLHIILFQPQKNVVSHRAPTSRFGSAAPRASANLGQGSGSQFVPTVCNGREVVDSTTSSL
T2 sequence (P31421 19-872): as above

Take `N#Cc1cc(C2=Nc3ccc(Br)cc3NC(=O)C2)ccn1` [MNI 137]: the “effect on basal GIRK current in the absence of glutamate” value in data set [1] was “no effect on basal current”. The “effect of co-application on LY48-induced GIRK activation” value in data set [1] (co-applied with LY48, saturating concentration for LY341495) was “blocked”. In addition, the “changes in gramicidin channel function (membrane properties)” value in data set [2] is on record as “do not alter membrane properties”.

Broadly, the EC50 is the concentration giving half of the maximal effect. As for `COc1ccccc1Oc1ccc(N(Cc2cccnc2)S(=O)(=O)CC(F)(F)F)cc1` [LY48], at SNAP-mGluR2, the “two-step bleaching events of SNAP-mGluR2 with glutamate plus LY48” value was ~ 60%. The “effect on the glutamate-sensitivity of mGluR2 (GIRK)” value in data set [1] (50 nM LY48) is “no effect on the glutamate-sensitivity of mGluR2”. Besides, the “highest concentration that did not produce a GIRK response on its own” value in data set [1] (full-length mGluR2) turned out to be 50 nM. Further, in data set [1] (full-length mGluR2, up to 10 min of washout), the “reversibility of GIRK currents after washout” value is “fully-reversible currents”. Further, the EC50 in data set [1] (mGluR2-WT, read-out: GIRK activation EC50 (approximate)) is about 300 nM; in data set [1] (wild-type SNAP-mGluR2, HEK 293T, PAM alone, normalized to saturating glutamate, mean ± s.e.m., read-out: GIRK activation EC50), 230 ± 40 nM. Moreover, the “maximal PAM-induced GIRK activation relative to glutamate” value in data set [1] (mGluR2-WT, relative to saturating glutamate) is listed as ~ 70%. Also, in data set [1] (saturating: 10 µM LY48, 1 mM Glutamate), the “GIRK current time 10% to 90%” value is 14.3 ± 3.5 s.

For the compound `Clc1cccc(Cl)c1/C(=C/n1cncn1)OC1CCCCCC1` [Ro 64], the “effect on basal GIRK current in the absence of glutamate” value in data set [1] is reported as “small but clear outward current”. Besides, the “changes in gramicidin channel function (membrane properties)” value in data set [2] was “do not alter membrane properties”.
